From publication PMC8070745, “FEN1 Blockade for Platinum Chemo-Sensitization and Synthetic Lethality in Epithelial Ovarian Cancers” (Cancers, 2021) come the findings set out here.

Common to all, as to type: cell-based, human
Experiment [1] deals with XRCC1 deficient A2780cis cells. Briefly: FEN1 inhibitor cytotoxicity, XRCC1 deficient A2780cis. The settings on record: vs A2780cis control.
The subject of another experiment is A2780cis cells. Briefly: Annexin V apoptosis detection, A2780cis. The conditions noted are these: FEN1i plus cisplatin. The procedure: (§1) Apoptosis detection: Annexin V detection kit (556547, BD Biosciences) was used to quantify apoptotic cells. Briefly, cells were trypsinized, washed with PBS and the cellular pellet was re-suspended in Anexin Binding Buffer (1×). Following, FITC Anexin V and Propidium Iodide were added to the cells. After incubation, Anexin binding Buffer (1×) was added to each tube. All the samples were analysed on a Beckman-Coulter FC500 flow cytometer. The percentage of apoptotic cells was determined (late apoptotic = FITC-Annexin V positive, PI positive early apoptotic = FITC-Annexin V positive, PI negative; live cells = FITC-Annexin V negative, PI negative) and compared for untreated and treated samples. Graphical representation and statistical analysis was performed in GraphPad Prism 7 (GraphPad, La Jolla, USA).
(§2) 3D Spheroid assays: A2780_control and A2780 FEN1_ KO as well as A2780cis_control and A2780cis FEN1_ KO cells were seeded at 4500 cells/cm2 density in ultra-low attachment 6-well plates (174932, Thermo Fisher Scientific) and cultured in 3D Tumorsphere Medium (C28070, PromoCell, UK) at 37°C in a 5% CO2 atmosphere. Cells were keep in culture for 7-10 days, toping up with fresh medium every two days until spheroids structures were formed.

In a further experiment the test system is PEO1 spheroids. Briefly: 3D spheroid assay, PEO1. The settings on record: PEO1 spheroids vs PEO4 spheroids. The protocol: (§3) with ice cold PBS and fixed in 70% ethanol for 1h at -20°C. After removal of the fixative solution by centrifugation, cells were stained with 2 µg/ml of phospho-Histone (γH2AX) Ser139 (16202A, Millipore, UK) to detect DSBs.
Cell cycle progression: Cells were treated with 20 µg/ml RNase A (12091021, Invitrogen) and then 10 µg/ml Propidium Iodide (P4170, Sigma Aldrich) was added to determine the cell cycle distribution. The samples were analysed on a Beckman-Coulter FC500 flow cytometer using a 488nm laser for excitation and emission data for PI collected using a 620nm bandpass filter (FL3) and a 525nm bandpass filter (FL1) for FITC-anti-phospho-Histone H2A.X.
Apoptosis detection: Annexin V detection kit (556547, BD Biosciences) was used to quantify apoptotic cells. Briefly, cells were trypsinized, washed with PBS and the cellular pellet was re-suspended in Anexin Binding Buffer (1×). […] All the samples were analysed on a Beckman-Coulter FC500 flow cytometer. The percentage of apoptotic cells was determined (late apoptotic = FITC-Annexin V positive, PI positive early apoptotic = FITC-Annexin V positive, PI negative; live cells = FITC-Annexin V negative, PI negative) and compared for untreated and treated samples. […]
To quantify cell viability, LIVE/DEAD Viability/Cytotoxicity Kit (L3224, Thermo Fisher Scientific) was used. […] At least 10 spheroids were measured. […]

The test system of another experiment is PEO4 cells. Briefly: Cell cycle progression, PEO4. The settings on record: FEN1i plus cisplatin. The procedure:
as §3
Cell cycle progression: Cells were treated with 20 µg/ml RNase A (12091021, Invitrogen) and then 10 µg/ml Propidium Iodide (P4170, Sigma Aldrich) was added to determine the cell cycle distribution. The samples were analysed on a Beckman-Coulter FC500 flow cytometer using a 488nm laser for excitation and emission data for PI collected using a 620nm bandpass filter (FL3) and a 525nm bandpass filter (FL1) for FITC-anti-phospho-Histone H2A.X. […]
Graphical representation and statistical analysis was performed in GraphPad Prism 7 (GraphPad, La Jolla, USA).
as §2

The next experiment concerns PEO1 cells. Briefly: Annexin V apoptosis detection, PEO1. The conditions noted are these: FEN1i monotherapy. The protocol:
as §1, §2

Molecules are shown by their SMILES.

For the compound `Cc1csc2c1c(=O)n(O)c(=O)n2-c1ccccc1` [PTPD, 3-hydroxy-5-methyl-1-phenylthieno [2,3 d]pyrimidine-2,4(1H,3H)-dione], the “sensitivity to FEN1 inhibitor” value in experiment [1] was “did not observe any increased sensitivity”. Moreover, the figures for the apoptosis entry in the experiment on A2780cis cells and in the experiment on PEO1 cells were “accumulation of apoptotic cells” and “induction of apoptosis”, respectively. For the same compound, in the experiment with PEO1 spheroids, the “spheroid sensitivity to FEN1 inhibitor” value was “hypersensitive to FEN1 inhibition”. Also, the cell cycle effect result with PEO4 cells is on record as “G2/M cell cycle arrest”.
